According to US20260374782A1, “NEW COMPOUNDS, PROCESSES FOR PREPARING THE SAME AND THEIR USE AS DRUGS” (B&A ONCOMEDICAL, priority 2022, published 2026):

Molecular target: T1, NKCC1 (Homo sapiens, UniProt P55011)
T1 construct: endogenous in cells; host or cells: native HEK293 cells
T1 sequence (P55011 1-1212): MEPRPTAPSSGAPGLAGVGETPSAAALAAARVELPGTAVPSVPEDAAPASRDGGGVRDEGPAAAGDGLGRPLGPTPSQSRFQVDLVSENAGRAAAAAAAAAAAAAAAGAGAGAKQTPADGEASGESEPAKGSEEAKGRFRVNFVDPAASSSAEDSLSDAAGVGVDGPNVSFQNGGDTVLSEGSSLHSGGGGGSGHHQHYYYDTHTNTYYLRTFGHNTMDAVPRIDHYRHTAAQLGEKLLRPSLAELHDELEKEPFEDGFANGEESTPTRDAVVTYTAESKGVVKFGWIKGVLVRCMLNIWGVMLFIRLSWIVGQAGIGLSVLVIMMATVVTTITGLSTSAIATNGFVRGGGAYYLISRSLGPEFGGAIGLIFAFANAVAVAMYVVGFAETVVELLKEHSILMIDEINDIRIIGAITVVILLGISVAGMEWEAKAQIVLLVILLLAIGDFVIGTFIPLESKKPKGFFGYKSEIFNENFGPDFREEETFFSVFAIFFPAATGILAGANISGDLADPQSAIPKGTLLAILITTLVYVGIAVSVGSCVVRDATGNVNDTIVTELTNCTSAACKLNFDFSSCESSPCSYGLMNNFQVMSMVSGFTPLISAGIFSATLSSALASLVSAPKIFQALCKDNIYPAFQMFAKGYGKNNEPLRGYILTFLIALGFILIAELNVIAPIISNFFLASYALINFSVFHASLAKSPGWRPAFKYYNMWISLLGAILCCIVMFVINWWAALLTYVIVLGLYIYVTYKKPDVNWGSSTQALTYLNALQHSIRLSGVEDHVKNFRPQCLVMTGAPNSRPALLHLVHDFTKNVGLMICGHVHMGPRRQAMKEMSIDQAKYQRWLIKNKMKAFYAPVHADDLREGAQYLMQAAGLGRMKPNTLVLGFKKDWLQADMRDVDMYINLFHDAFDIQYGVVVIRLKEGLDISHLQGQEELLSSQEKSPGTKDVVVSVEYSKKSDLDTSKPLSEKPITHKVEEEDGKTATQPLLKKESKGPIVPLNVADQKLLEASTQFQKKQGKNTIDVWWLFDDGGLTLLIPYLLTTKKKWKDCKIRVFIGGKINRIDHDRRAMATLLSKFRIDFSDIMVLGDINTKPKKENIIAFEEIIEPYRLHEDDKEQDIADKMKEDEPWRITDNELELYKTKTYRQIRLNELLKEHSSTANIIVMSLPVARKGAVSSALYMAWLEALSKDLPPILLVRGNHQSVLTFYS
Experiment: NKCC1-mediated K+ influx (83Rb tracer uptake) in native HEK293 cells, hypertonic saline, 100 μM ouabain
Format: cell-based
Conditions: HEK293, no drug = 1000, 20 μM bumetanide = 0; for inhibition at 20 µM: read-out: NKCC1 mediated flux inhibition at 20 μM (%); for inhibition at 2 µM: read-out: NKCC1 mediated flux inhibition at 2 μM (%)
From the text: The compounds of the invention have been tested for evaluating their potency in inhibiting the NKCC1 channel. The test used is a cellular assay expressing the NKCC1 channel: HEK293 cells are human cells derived from embryonic kidney. The inhibitory activity of the compounds has been evaluated in measuring the modification of the potassium flux at 2 concentrations, as described hereafter in the biological protocol.
HEK293 cells are human cells derived from embryonic kidney. They express at their plasma membranes proteins that transport potassium (K^+). Among these proteins is the Na—K-2Cl cotransporter or NKCC1. This transporter contributes to 40-50% of K^+ influx into the cells. The remaining of K^+ transport is mediated by the Na^+/K^+-ATPase (also known as Na^+ pump or Na^+/K^+ pump), which also contributes some 40-50% of the influx basal flux of 5-10%, which is mainly due to K^+ channels (FIG. 1A). Thus, the HEK293 cell in culture is an ideal model to study the function of NKCC1 and test compounds that inhibits its transport.
The assay to measure NKCC1 function was optimized to obtain the next signal to noise ratio: • a. A slightly hypertonic saline was used to stimulate NKCC1 function. […] By consistent use of this simple manipulation, the NKCC1 signal was enhanced. • b. Ouabain, an inhibitor of the Na^+/K^+ pump, was used at 100 μM. […] A radioactive isotope was used to trace the inward movement of K^+ into the cell (influx). This allowed for highly precise measurements of K^+ influx. Because radioactive isotopes of K^+ had very short half-lives, radioactive isotopes of Rb^+ were used. Rubidium was a monovalent cation which was readily transporter at the K^+ binding site by many transporters and channels. Rb^+ was a congener of K^+, being transported undistinguishably from K^+. ^83Rb (half-life of 83 days) was used since ^86Rb (half-life of 19.6 days) is no longer commercially available. The ^83Rb isotope was used as a tracer, i.e. at a very low amounts to trace the movement of K^+.
K^+ influx measured in native HEK293 was in the range of 7000-9000 pmoles K^+ per mg protein per min. In the presence of 20 μM Ref 1, the flux was reduced to 600-900 pmoles K^+ per mg protein per min. Thus, there was a very solid dynamic range. In each experiment, the flux without Ref 1 was set at 1000 (equivalent to 100.0%) and the flux with 20 μM bumetanide was set at 0 (equivalent to 0%).
For the flux experiments, 35-mm culture dishes were coated with 0.1 mg/mL poly-L-lysine and placed in large 20×20 [square] dishes. For convenience, the poly-L-lysine was placed in the dishes the day before the experiment. Before plating the cells, the poly-L-lysine was aspirated, and each dish washed twice with 1 mL sterile water. Cells from 3 confluent 10-cm dishes were detached with trypsin and resuspended into 49 mL complete medium. Cells (2 mL/35-mm dish) were plated in 24 dishes and allowed to attach for at least 2 hours prior to the flux. This setup allowed the measurement of 8 conditions in triplicates. For the flux, culture medium was aspirated and replaced with 1 mL saline for a preincubation period of 15 min. The saline was aspirated and replaced with 1 mL identical saline containing 0.25 μCi/mL 83Rb for 15 min. Following the uptake period, the radioactive solution was aspirated, and the cells washed 3 times with ice-cold saline. Cells were then lyzed with 500 μl 0.25N NaOH for 1 hour, neutralized with 250 μL glacial acetic acid and 300 μL and 30 μL aliquots were used for μ-scintillation counting and protein assays, respectively. Two 5 μL of each flux solution was used to determine cpm and relate those cpm to nmoles K^+. Potassium influx was expressed in nmoles K^+ per mg protein per min. Note that within an experiment, groups of 3 dishes were separated 2 min apart for easy handling. Also note that since all dishes were plated with a homogeneous cell suspension, and all dishes were identical, the protein content was measured from a subset of dishes. […]

Row | Compound | inhibition at 20 µM | inhibition at 2 µM
1 | CCCCNc1cc(C(=O)OC)cc(S(=N)(=O)N(C)CC)c1Oc1ccccc1 (stereo not drawn) [Compound 5, methyl 3-(butylamino)-5-[[ethyl(methyl)amino]sulfonimidoyl]-4-phenoxy-benzoate] | 50 to 75% | 
2 | CCCCNc1cc(C(=O)OC)cc(S(=N)(=O)N2CCOCC2)c1Oc1ccccc1 (stereo not drawn) [Compound 6, methyl 3-(butylamino)-5-(morpholinosulfonimidoyl)-4-phenoxy-benzoate] | 30 to 50% | 10 to 30%
3 | CCCCNc1cc(C(=O)OC)cc(S(=N)(=O)Nc2ccccc2)c1Oc1ccccc1 (stereo not drawn) [Compound 7, methyl 3-(anilinosulfonimidoyl)-5-(butylamino)-4-phenoxy-benzoate] | 50 to 75% | 10 to 30%
4 | CCCCNc1cc(C(=O)OC)cc(S(=N)(=O)NCc2ccccc2)c1Oc1ccccc1 (stereo not drawn) [Compound 8, methyl 3-[(benzylamino)sulfonimidoyl]-5-(butylamino)-4-phenoxy-benzoate] | 50 to 75% | 10 to 30%
5 | CCCCNc1cc(C(=O)OC)cc(S(=N)(=O)NCCOC)c1Oc1ccccc1 (stereo not drawn) [Compound 9, methyl 3-(butylamino)-5-[(2-methoxyethylamino)sulfonimidoyl]-4-phenoxy-benzoate] | 10 to 30% | 
6 | CCCCNc1cc(C(=O)OC)cc(S(=N)(=O)NC2CC2)c1Oc1ccccc1 (stereo not drawn) [Compound 10, methyl 3-(butylamino)-5-[(cyclopropylamino)sulfonimidoyl]-4-phenoxy-benzoate] | 10 to 30% | 
7 | CCCCNc1cc(C(=O)OC)cc(S(=N)(=O)N2CCCCCC2)c1Oc1ccccc1 (stereo not drawn) [Compound 11, methyl 3-(azepan-1-ylsulfonimidoyl)-5-(butylamino)-4-phenoxy-benzoate] | 50 to 75% | 
8 | CCCCNc1cc(C(=O)OC)cc(S(=N)(=O)NCC2CCCCC2)c1Oc1ccccc1 (stereo not drawn) [Compound 12, methyl 3-(butylamino)-5-[(cyclohexylmethylamino)sulfonimidoyl]-4-phenoxy-benzoate] | 30 to 50% | 10 to 30%
9 | CCCCNc1cc(C(=O)OC)cc(S(=N)(=O)NCC2CCOCC2)c1Oc1ccccc1 (stereo not drawn) [Compound 13, methyl 3-(butylamino)-4-phenoxy-5-[(tetrahydropyran-4-ylmethylamino)sulfonimidoyl]benzoate] | 10 to 30% | 
10 | CCCCNc1cc(C(=O)OC)cc(S(=N)(=O)N(C)c2ccccc2)c1Oc1ccccc1 (stereo not drawn) [Compound 14, methyl 3-(butylamino)-5-[(N-methylanilino)sulfonimidoyl]-4-phenoxy-benzoate] | 10 to 30% | 10 to 30%
11 | CCCCNc1cc(C(=O)OC)cc(S(=N)(=O)NCc2cncnc2)c1Oc1ccccc1 (stereo not drawn) [Compound 15, methyl 3-(butylamino)-4-phenoxy-5-[(pyrimidin-5-ylmethylamino)sulfonimidoyl]benzoate] | 30 to 50% | 30 to 50%
12 | CCCCNc1cc(C(=O)OC)cc(S(=N)(=O)Nc2cccnc2)c1Oc1ccccc1 (stereo not drawn) [Compound 16, methyl 3-(butylamino)-4-phenoxy-5-[(3-pyridylamino)sulfonimidoyl]benzoate] | 10 to 30% | 30 to 50%
13 | CCCCNc1cc(C(=O)OC)cc(S(=N)(=O)Nc2cccc(OC)c2)c1Oc1ccccc1 (stereo not drawn) [Compound 17, methyl 3-(butylamino)-5-[(3-methoxyanilino)sulfonimidoyl]-4-phenoxy-benzoate] | 30 to 50% | 10 to 30%
14 | CCCCNc1cc(C(=O)OC)cc(S(=N)(=O)N2CCC(c3ccccc3)CC2)c1Oc1ccccc1 (stereo not drawn) [Compound 18, methyl 3-(butylamino)-4-phenoxy-5-[(4-phenyl-1-piperidyl)sulfonimidoyl]benzoate] | 10 to 30% | 30 to 50%
15 | CCCCNc1cc(C(=O)OC)cc(S(=N)(=O)N2CCc3ccccc32)c1Oc1ccccc1 (stereo not drawn) [Compound 19, methyl 3-(butylamino)-5-(indolin-1-ylsulfonimidoyl)-4-phenoxy-benzoate] | 10 to 30% | 30 to 50%
16 | CCCCNc1cc(C(=O)OC)cc(S(=N)(=O)N2CC3CCC(C2)O3)c1Oc1ccccc1 (stereo not drawn) [Compound 20, methyl 3-(butylamino)-5-(8-oxa-3-azabicyclo[3.2.1]octan-3-ylsulfonimidoyl)-4-phenoxy-benzoate] | 10 to 30% | 
17 | CCCCNc1cc(C(=O)OC)cc(S(=N)(=O)Nc2ccn(C)n2)c1Oc1ccccc1 (stereo not drawn) [Compound 21, methyl 3-(butylamino)-5-[[(1-methylpyrazol-3-yl)amino]sulfonimidoyl]-4-phenoxy-benzoate] | 30 to 50% | 10 to 30%
18 | CCCCNc1cc(C(=O)OC)cc(S(=N)(=O)Nc2cccc(Cl)c2)c1Oc1ccccc1 (stereo not drawn) [Compound 22, methyl 3-(butylamino)-5-[(3-chloroanilino)sulfonimidoyl]-4-phenoxy-benzoate] | 30 to 50% | 30 to 50%
19 | CCCCNc1cc(C(=O)OC)cc(S(=N)(=O)NCc2cccc(Cl)c2)c1Oc1ccccc1 (stereo not drawn) [Compound 23, methyl 3-(butylamino)-5-[[(3-chlorophenyl)methylamino]sulfonimidoyl]-4-phenoxy-benzoate] | 10 to 30% | 30 to 50%
20 | CCCCNc1cc(C(=O)OC)cc(S(=N)(=O)N2Cc3ccccc3C2)c1Oc1ccccc1 (stereo not drawn) [Compound 24, methyl 3-(butylamino)-5-(isoindolin-2-ylsulfonimidoyl)-4-phenoxy-benzoate] | 30 to 50% | 10 to 30%
21 | CCCCNc1cc(C(=O)OC)cc(S(=N)(N)=O)c1Oc1ccccc1 (stereo not drawn) [Compound 25, methyl 3-(aminosulfonimidoyl)-5-(butylamino)-4-phenoxy-benzoate] | 30 to 50% | 30 to 50%
